Data from patent publication US6525001B1, “Substituted pyrimidine and pyridine herbicides” (Mid-American Commercialization Corporation, priority 1997, dated 2003).

Columns and labels:
Assay type in all cases: in vivo
Design in all cases: key: 0 is no effect; 10 is complete control
soybean (Glycine max) = assay: Test B pre-/postemergence
How it was run: (§1)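 Seeds were planted and sprayed preemergence, while plants at 2 to 18 cm (1- to 4-leaf stage) were sprayed postemergence at the same time, with test chemical in a non-phytotoxic solvent mixture containing surfactant. After twelve to sixteen days in a greenhouse, injury was rated visually against untreated controls on a 0–10 scale.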

[1] = tested on: cocklebur (Xanthium strumarium); assay: Test B pre-/postemergence; conditions: for Cocklebur plant response rating: Preemergence
How it was run: as §1

[2] = tested on: sugar beet (Beta vulgaris); assay: Test B pre-/postemergence
How it was run: as §1

rape (Brassica napus) = assay: Test B pre-/postemergence
How it was run: as §1

[3] = tested on: momingglory (Ipomoea hederacea); assay: Test B pre-/postemergence
How it was run: as §1

[4] = tested on: crabgrass (Digitaria sanguinalis); assay: Test B pre-/postemergence; conditions: for Crabgrass plant response rating: Preemergence
How it was run: as §1

[5] = tested on: broadleaf signalgrass (Brachiaria decumbens); assay: Test B pre-/postemergence; conditions: for B. signalgrass plant response rating: Preemergence
How it was run: as §1

wild oat (Avena fatua) = assay: Test B pre-/postemergence
How it was run: as §1

[6] = tested on: giant foxtail (Setaria faberii); assay: Test B pre-/postemergence
How it was run: as §1

[7] = tested on: blackgrass (Alopecurus myosuroides); assay: Test B pre-/postemergence; conditions: for Blackgrass plant response rating: Preemergence
How it was run: as §1

[8] = tested on: purple nutsedge (Cyperus rotundus); assay: Test B pre-/postemergence
How it was run: as §1

[9] = tested on: pigweed (Amaranthus retroflexus); assay: Test B pre-/postemergence
How it was run: as §1

[10] = tested on: velvetleaf (Abutilon theophrasti); assay: Test B pre-/postemergence
How it was run: as §1

[11] = tested on: wheat (Triticum aestivum); assay: Test B pre-/postemergence
How it was run: as §1

corn (Zea mays) = assay: Test B pre-/postemergence; conditions: for Corn plant response rating: Preemergence
How it was run: as §1

[12] = tested on: bedstraw (Galium aparine); assay: Test B pre-/postemergence; conditions: for Bedstraw plant response rating: Preemergence
How it was run: as §1

[13] = tested on: bamyardgrass (Echinochloa crus-galli); assay: Test B flood test
How it was run: (§2)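 Plants were grown to the 2-leaf stage before treatment with test chemical, then held in a greenhouse for twelve to sixteen days. Injury was visually rated against untreated controls on a 0–10 scale, where 0 is no effect and 10 is complete control.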

rice (Oryza sativa) = assay: Test B flood test
How it was run: as §2

[14] = tested on: duck salad (Heteranthera limosa); assay: Test B flood test
How it was run: as §2

[15] = tested on: smallflower flatsedge (Cyperus difformis); assay: Test B flood test
How it was run: as §2

[16] = Rate 250 g/ha, Postemergence (so in the source)
[17] = Rate 62 g/ha, Postemergence (flood test)
[18] = Rate 125 g/ha, Postemergence, flood test
[19] = Rate 250 g/ha, Postemergence (flood test species)
[20] = Rate 125 g/ha, Postemergence section (flood test species)

Cc1cnc(-c2ccc(Cl)cc2)nc1Cc1cccc(C#N)c1 [Compound 33]
Plant response rating, Soybean (soybean (Glycine max); Rate 62 g/ha, Postemergence): 1 | Soybean plant response rating (soybean (Glycine max); Rate 62 g/ha, Preemergence): 0 | Soybean plant response rating (soybean (Glycine max); Rate 125 g/ha, Postemergence): 2 | Plant response rating, Soybean (soybean (Glycine max); Rate 125 g/ha, Preemergence): 0 | Plant response rating, Soybean (soybean (Glycine max); Rate 250 g/ha, Postemergence): 4 | Plant response rating, Soybean (soybean (Glycine max); [16]): 0 | Plant response rating, Cocklebur ([1]; Rate 62 g/ha, Postemergence): 3 | Cocklebur plant response rating ([1]; Rate 62 g/ha): 0 | Plant response rating, Cocklebur ([1]; Rate 125 g/ha, Postemergence): 6 | Cocklebur plant response rating ([1]; Rate 125 g/ha): 0 | Plant response rating, Cocklebur ([1]; Rate 250 g/ha, Postemergence): 6 | Plant response rating, Cocklebur [1, 16]: 0 | Plant response rating, Sugarbeets ([2]; Rate 62 g/ha, Postemergence): 10 | Sugarbeets plant response rating ([2]; Rate 62 g/ha, Preemergence): 0 | Sugarbeets plant response rating ([2]; Rate 125 g/ha, Postemergence): 10 | Plant response rating, Sugarbeets ([2]; Rate 125 g/ha, Preemergence): 1 | Plant response rating, Sugarbeets ([2]; Rate 250 g/ha, Postemergence): 10 | Plant response rating, Sugarbeets [2, 16]: 4 | Plant response rating, Rape (rape (Brassica napus); Rate 62 g/ha, Postemergence): 6 | Rape plant response rating (rape (Brassica napus); Rate 62 g/ha, Preemergence): 0 | Rape plant response rating (rape (Brassica napus); Rate 125 g/ha, Postemergence): 7 | Rape plant response rating (rape (Brassica napus); Rate 125 g/ha, Preemergence): 0 | Plant response rating, Rape (rape (Brassica napus); Rate 250 g/ha, Postemergence): 7 | Plant response rating, Rape (rape (Brassica napus); [16]): 2 | Plant response rating, Morningglory ([3]; Rate 62 g/ha, Postemergence): 2 | Morningglory plant response rating ([3]; Rate 62 g/ha, Preemergence): 0 | Morningglory plant response rating ([3]; Rate 125 g/ha, Postemergence): 5 | Morningglory plant response rating ([3]; Rate 125 g/ha, Preemergence): 0 | Plant response rating, Morningglory ([3]; Rate 250 g/ha, Postemergence): 5 | Plant response rating, Morningglory [3, 16]: 0 | Plant response rating, Crabgrass ([4]; Rate 62 g/ha, Postemergence): 0 | Crabgrass plant response rating ([4]; Rate 62 g/ha): 0 | Plant response rating, Crabgrass ([4]; Rate 125 g/ha, Postemergence): 0 | Crabgrass plant response rating ([4]; Rate 125 g/ha): 0 | Plant response rating, Crabgrass ([4]; Rate 250 g/ha, Postemergence): 1 | Plant response rating, Crabgrass [4, 16]: 0 | Plant response rating, B. signalgrass ([5]; Rate 62 g/ha, Postemergence): 1 | B. signalgrass plant response rating ([5]; Rate 62 g/ha): 0 | Plant response rating, B. signalgrass ([5]; Rate 125 g/ha, Postemergence): 1 | B. signalgrass plant response rating ([5]; Rate 125 g/ha): 1 | Plant response rating, B. signalgrass ([5]; Rate 250 g/ha, Postemergence): 2 | Plant response rating, B. signalgrass ([5]; Rate 250 g/ha, Postemergence as printed in head r139 (second section for compounds 26-50)): 1 | Wild oats plant response rating (wild oat (Avena fatua); Rate 62 g/ha, Postemergence): 1 | Wild oats plant response rating (wild oat (Avena fatua); Rate 62 g/ha, Preemergence): 0 | Wild oats plant response rating (wild oat (Avena fatua); Rate 125 g/ha, Postemergence): 2 | Plant response rating, Wild oats (wild oat (Avena fatua); Rate 125 g/ha, Preemergence): 0 | Plant response rating, Wild oats (wild oat (Avena fatua); Rate 250 g/ha, Postemergence): 3 | Plant response rating, Wild oats (wild oat (Avena fatua); [16]): 1 | Plant response rating, Giant foxtail ([6]; Rate 62 g/ha, Postemergence): 0 | Giant foxtail plant response rating ([6]; Rate 62 g/ha, Preemergence): 0 | Giant foxtail plant response rating ([6]; Rate 125 g/ha, Postemergence): 0 | Giant foxtail plant response rating ([6]; Rate 125 g/ha, Preemergence): 1 | Plant response rating, Giant foxtail ([6]; Rate 250 g/ha, Postemergence): 1 | Plant response rating, Giant foxtail [6, 16]: 1 | Plant response rating, Blackgrass ([7]; Rate 62 g/ha, Postemergence): 0 | Blackgrass plant response rating ([7]; Rate 62 g/ha): 0 | Plant response rating, Blackgrass ([7]; Rate 125 g/ha, Postemergence): 1 | Blackgrass plant response rating ([7]; Rate 125 g/ha): 0 | Plant response rating, Blackgrass ([7]; Rate 250 g/ha, Postemergence): 2 | Plant response rating, Blackgrass [7, 16]: 0 | Plant response rating, Nutsedge ([8]; Rate 62 g/ha, Postemergence): 0 | Nutsedge plant response rating ([8]; Rate 62 g/ha, Preemergence): 0 | Nutsedge plant response rating ([8]; Rate 125 g/ha, Postemergence): 0 | Nutsedge plant response rating ([8]; Rate 125 g/ha, Preemergence): 0 | Plant response rating, Nutsedge ([8]; Rate 250 g/ha, Postemergence): 0 | Plant response rating, Redroot pigweed ([9]; Rate 62 g/ha, Postemergence): 1 | Redroot pigweed plant response rating ([9]; Rate 62 g/ha, Preemergence): 0 | Redroot pigweed plant response rating ([9]; Rate 125 g/ha, Postemergence): 2 | Redroot pigweed plant response rating ([9]; Rate 125 g/ha, Preemergence): 0 | Plant response rating, Redroot pigweed ([9]; Rate 250 g/ha, Postemergence): 7 | Plant response rating, Redroot pigweed [9, 16]: 2 | Plant response rating, Velvetleaf ([10]; Rate 62 g/ha, Postemergence): 1 | Velvetleaf plant response rating ([10]; Rate 62 g/ha, Preemergence): 0 | Velvetleaf plant response rating ([10]; Rate 125 g/ha, Postemergence): 4 | Plant response rating, Velvetleaf ([10]; Rate 125 g/ha, Preemergence): 0 | Plant response rating, Velvetleaf ([10]; Rate 250 g/ha, Postemergence): 6 | Plant response rating, Velvetleaf [10, 16]: 1 | Wheat plant response rating ([11]; Rate 62 g/ha, Postemergence): 0 | Wheat plant response rating ([11]; Rate 62 g/ha, Preemergence): 0 | Wheat plant response rating ([11]; Rate 125 g/ha, Postemergence): 1 | Plant response rating, Wheat ([11]; Rate 125 g/ha, Preemergence): 0 | Plant response rating, Wheat ([11]; Rate 250 g/ha, Postemergence): 1 | Plant response rating, Wheat [11, 16]: 1 | Plant response rating, Corn (corn (Zea mays); Rate 62 g/ha, Postemergence): 1 | Corn plant response rating (corn (Zea mays); Rate 62 g/ha): 0 | Plant response rating, Corn (corn (Zea mays); Rate 125 g/ha, Postemergence): 1 | Corn plant response rating (corn (Zea mays); Rate 125 g/ha): 0 | Plant response rating, Corn (corn (Zea mays); Rate 250 g/ha, Postemergence): 1 | Plant response rating, Corn (corn (Zea mays); [16]): 0 | Plant response rating, Bedstraw ([12]; Rate 62 g/ha, Postemergence): 9 | Bedstraw plant response rating ([12]; Rate 62 g/ha): 0 | Plant response rating, Bedstraw ([12]; Rate 125 g/ha, Postemergence): 9 | Bedstraw plant response rating ([12]; Rate 125 g/ha): 1 | Plant response rating, Bedstraw ([12]; Rate 250 g/ha, Postemergence): 9 | Plant response rating, Bedstraw [12, 16]: 2 | Plant response rating, Barnyardgrass [13, 17]: 1 | Plant response rating, Barnyardgrass [13, 18]: 2 | Plant response rating, Barnyardgrass [13, 19]: 3 | Plant response rating, Rice (rice (Oryza sativa); [17]): 1 | Rice plant response rating (rice (Oryza sativa); [20]): 1 | Plant response rating, Rice (rice (Oryza sativa); [19]): 3 | Plant response rating, Ducksalad [14, 17]: 0 | Plant response rating, Ducksalad [14, 18]: 1 | Plant response rating, Ducksalad [14, 19]: 2 | Plant response rating, S. Flatsedge [15, 17]: 3 | S. Flatsedge plant response rating [15, 20]: 7 | Plant response rating, S. Flatsedge [15, 19]: 8
